Source: US11242334B2, “Heterocyclic compounds as kinase inhibitors, compositions comprising the heterocyclic compound, and methods of use thereof” (JS INNOPHARM (SHANGHAI) LTD, priority 2017, dated 2022)

Columns and labels:
Colo205 cell line = experiment: Colo205 cell proliferation assay (MTT assay, WST-8 readout); assay type: cell-based; conditions: Homo sapiens; IC50 values of growth inhibition in Colo 205 cells; 72 hours
Experimental: Compounds disclosed herein were tested for the inhibition of ERK2 by a Colo205 cell proliferation assay commonly known as MTT assay. In this assay, a complete media was prepared by adding 10% fetal bovine serum to RPMI-1640 medium (Life technology). Colon cancer cells (Colo205 cell line) were added to each of 88 wells of a 96 well plate at a seeding density of 5,000 cells/well/90 μL. The cells were allowed to attach to the plate by incubating at 37° C. for 24 hours. The compound was dissolved in DMSO (SIGMA). A solution of test compound was prepared in complete media by serial dilution to obtain the following concentrations: 500 μM, 150 μM, 50 μM, 15 μM, 5 μM, 1.5 μM, 0.5 μM, 0.15 μM and 0.05 μM. The test compound solution (10 μL) was added to each of 80 cell-containing wells. The final concentrations of the compound were following: 50 μM, 15 μM, 5 μM, 1.5 μM, 0.5 μM, 0.15 μM, 0.05 μM, 0.015 μM and 0.005 μM. The final concentration of DMSO is 0.5%. To the 8 remaining cell-containing wells, only complete media (containing 0.5% DMSO) was added to form a control group in order to measure maximal proliferation. To the remaining 8 empty wells, complete media was added to for a vehicle control group in order to measure background. The plates were incubated at 37° C. for 72 hours. 10 μL WST-8 solution (DOJINDO, Cell Counting KIT-8) was added to each well. The plates were further incubated at 37° C. for 2 hours, and then read for the absorbance using a microplate reader at 450 nm.
The IC50 values of growth inhibition in Colo 205 cells for Compounds disclosed are listed in Table 3, A′: ≤0.5 μM; B′: >0.5 μM and ≤1 μM; C′: >1.0 μM and ≤5 uM; D′: >5 μM.

human ERK2 = target: T1, human ERK2 (Homo sapiens, UniProt P28482); experiment: LanthaScreen TR-FRET enzymatic assay, ERK2; conditions: IC50 values of ERK2 biochemical activity; 5 μM ATP, 400 nM ATF2-GFP substrate
T1 construct: recombinantly expressed as GST-tagged full-length protein purified from E. coli; GST; purchased Invitrogen PV3311; host or cells: E. coli
Experimental: Compounds were tested in a LanthaScreen™ time-resolved fluorescence energy transfer (TR-FRET) enzymatic assay from Invitrogen. The assay used human ERK2 (Mitogen Activated Kinase 1, Invitrogen, Cat. PV3311) recombinantly expressed as GST-tagged full-length protein purified from E. coli and activated in vitro with MAP2K1. The substrate was a recombinant truncated version (residues 19-96) of ATF2 fused with Green Fluorescent Protein (Invitrogen, Cat. PV4445). Test compounds were prepared and diluted in DMSO in 3-fold serial dilutions to 100× of the final testing concentrations. The compounds were then further diluted to 4× by the kinase reaction buffer (Invitrogen, Cat. PV3189). The enzymatic reaction for compound testing was performed in a white 384-well polypropylene plate (Packard, Cat. 6005214) with a total reaction volume of 10 μl containing 20 ng/ml ERK2, 400 nM substrate, and 5 μM ATP that is around its Km. The assay started with loading 2.5 μl of ERK2 diluted in kinase reaction buffer to wells, followed by addition of equal volume of 4× compounds for 15-min incubation at the room temperature for pre-treatment. The enzymatic reaction was initiated by addition of 5 μl of mixture of the substrate and ATP prepared in kinase reaction buffer. After one hour reaction, 10 μl mixture of EDTA (final 10 mM) and terbium-labeled anti-pATF2 (pThr71) antibody (final 2 nM) (Invitrogen, Cat. PV4451) prepared in TR-FRET antibody dilution buffer (Invitrogen, Cat. PV3574) was added to stop the enzymatic reaction and produce TR-FRET signals. After 30 minutes of incubation at room temperature, the plate was read in Tecan Infinite F200 Pro with the following settings: Excitation 340 nm (30)/Emission1 495 nm (10)/Emission2 520 nm (25). The TR-FRET values were dimensionless numbers that were calculated as the ratio of the acceptor ([…]) signal to the donor (Terbium) signal. Percent of control was calculated as the percentage of compound-treated vs 1% DMSO vehicle-treated. The dose-response curves were generated and the ICsos were calculated by nonlinear sigmoid curve fitting using GraphPad Prism.
The IC50 values of ERK2 biochemical activity for the examples disclosed herein are listed in Table 3, A: ≤10 nM; B: >10 nM and ≤50 nM; C: >50 nM and ≤100 nM; D.>100 nM.

T1 sequence (P28482 whole entry): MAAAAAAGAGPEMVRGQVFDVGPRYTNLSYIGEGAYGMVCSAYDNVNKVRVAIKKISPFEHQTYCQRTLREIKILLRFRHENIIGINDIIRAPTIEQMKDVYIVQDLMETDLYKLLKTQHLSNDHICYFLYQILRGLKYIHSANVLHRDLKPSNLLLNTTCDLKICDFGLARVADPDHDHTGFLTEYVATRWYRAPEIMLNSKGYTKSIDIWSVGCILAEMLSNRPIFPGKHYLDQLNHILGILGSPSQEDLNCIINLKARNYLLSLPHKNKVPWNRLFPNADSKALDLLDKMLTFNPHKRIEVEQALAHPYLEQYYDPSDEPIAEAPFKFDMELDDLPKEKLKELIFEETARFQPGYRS

Row | Compound | IC50 (Colo205 cell line) [nM] | IC50 (human ERK2) [nM]
1 | O=c1cc(-c2ccc3[nH]ncc3c2)ccn1[C@H](CO)c1cccc(Cl)c1 [Example 22, (S)-1-(1-(3-chlorophenyl)-2-hydroxyethyl)-4-(1H-indazol-5-yl)pyridin-2(1H)-one] | > 5000 | 10 to 50
2 | CCc1n[nH]c2ccc(-c3ccn([C@H](CO)c4cccc(Cl)c4)c(=O)c3)cc12 [Example 23, (S)-1-(1-(3-chlorophenyl)-2-hydroxyethyl)-4-(3-ethyl-1H-indazol-5-yl)pyridin-2(1H)-one] | 1000 to 5000 | 50 to 100
3 | Cc1cc(-c2n[nH]c3ncc(-c4ccn([C@H](CO)c5ccc(Cl)c(F)c5)c(=O)c4)cc23)ccn1 [Example 24, (S)-1-(1-(4-chloro-3-fluorophenyl)-2-hydroxyethyl)-4-(3-(2-methylpyridin-4-yl)-1H-pyrazolo[3,4-b]pyridin-5-yl)pyridin-2(1H)-one] | 1000 to 5000 | 50 to 100
4 | Cc1cc(-c2n[nH]c3ccc(-c4ccn([C@H](CO)c5cc(F)cc(Br)c5)c(=O)c4)cc23)ccn1 [Example 26, (S)-1-(1-(3-bromo-5-fluorophenyl)-2-hydroxyethyl)-4-(3-(2-methylpyridin-4-yl)-1H-indazol-5-yl)pyridin-2(1H)-one] | ≤ 500 | < 10
5 | O=c1cc(-c2ccc3[nH]nc(N4CCC(O)C4)c3c2)ccn1[C@H](CO)c1cccc(Cl)c1 (stereo partly drawn) [Example 27, 1-((S)-1-(3-chlorophenyl)-2-hydroxyethyl)-4-(3-(3-hydroxypyrrolidin-1-yl)-1H-indazol-5-yl)pyridin-2(1H)-one] | 1000 to 5000 | < 10
6 | Cc1cc(-c2n[nH]c3ccc(-c4ccn([C@H](CO)c5cc(Cl)ccc5F)c(=O)c4)cc23)ccn1 [Example 28, (S)-1-(1-(5-chloro-2-fluorophenyl)-2-hydroxyethyl)-4-(3-(2-methylpyridin-4-yl)-1H-indazol-5-yl)pyridin-2(1H)-one] | ≤ 500 | < 10
7 | Cc1cc(-c2n[nH]c3ccc(-c4cc[nH]c(=O)c4)cc23)ccn1 [Example 29, 4-(3-(2-methylpyridin-4-yl)-1H-indazol-5-yl)pyridin-2(1H)-one] | 1000 to 5000 | < 10
8 | Cc1cc(-c2n[nH]c3ccc(-c4ccn([C@H](CO)c5ccc(F)c(Cl)c5)c(=O)c4)cc23)ccn1 [Example 30, (S)-1-(1-(3-chloro-4-fluorophenyl)-2-hydroxyethyl)-4-(3-(2-methylpyridin-4-yl)-1H-indazol-5-yl)pyridin-2(1H)-one] | ≤ 500 | < 10
9 | Cc1cc(-c2n[nH]c3ccc(-c4ccn([C@@H](CO)c5cccc(Cl)c5)c(=O)c4)cc23)ccn1 [Example 31, (R)-1-(1-(3-chlorophenyl)-2-hydroxyethyl)-4-(3-(2-methylpyridin-4-yl)-1H-indazol-5-yl)pyridin-2(1H)-one] | 1000 to 5000 | < 10
10 | Cc1cc(-c2n[nH]c3ccc(-c4ccn([C@H](CO)c5ccc(Cl)cc5)c(=O)c4)cc23)ccn1 [Example 32, (S)-1-(1-(4-chlorophenyl)-2-hydroxyethyl)-4-(3-(2-methylpyridin-4-yl)-1H-indazol-5-yl)pyridin-2(1H)-one] | ≤ 500 | < 10
11 | Cc1cc(-c2n[nH]c3ccc(-c4ccn([C@H](CO)c5cc(F)cc(C(F)(F)F)c5)c(=O)c4)cc23)ccn1 [Example 33, (S)-1-(1-(3-fluoro-5-(trifluoromethyl)phenyl)-2-hydroxyethyl)-4-(3-(2-methylpyridin-4-yl)-1H-indazol-5-yl)pyridin-2(1H)-one] | ≤ 500 | < 10
12 | CC(C)Oc1ccc(-c2n[nH]c3ccc(-c4ccn([C@H](CO)c5ccc(F)c(Cl)c5)c(=O)c4)cc23)cn1 [Example 34, (S)-1-(1-(3-chloro-4-fluorophenyl)-2-hydroxyethyl)-4-(3-(6-isopropoxypyridin-3-yl)-1H-indazol-5-yl)pyridin-2(1H)-one] | 1000 to 5000 | 10 to 50
13 | Cc1cc(-c2n[nH]c3ccc(-c4ccn([C@H](CO)c5cccc(Cl)c5F)c(=O)c4)cc23)ccn1 [Example 35, (S)-1-(1-(3-chloro-2-fluorophenyl)-2-hydroxyethyl)-4-(3-(2-methylpyridin-4-yl)-1H-indazol-5-yl)pyridin-2(1H)-one] | ≤ 500 | < 10
14 | Cc1cc(-c2n[nH]c3ccc(-c4ccn([C@H](CO)c5ccc(F)c(Br)c5)c(=O)c4)cc23)ccn1 [Example 36, (S)-1-(1-(3-bromo-4-fluorophenyl)-2-hydroxyethyl)-4-(3-(2-methylpyridin-4-yl)-1H-indazol-5-yl)pyridin-2(1H)-one] | ≤ 500 | < 10
15 | Cn1cc(-c2n[nH]c3ccc(-c4ccn([C@H](CO)c5ccc(F)c(Cl)c5)c(=O)c4)cc23)cn1 [Example 37, (S)-1-(1-(3-chloro-4-fluorophenyl)-2-hydroxyethyl)-4-(3-(1-methyl-1H-pyrazol-4-yl)-1H-indazol-5-yl)pyridin-2(1H)-one] | ≤ 500 | < 10
16 | Cn1cc(-c2n[nH]c3ccc(-c4ccn([C@H](CO)c5ccc(Cl)c(F)c5)c(=O)c4)cc23)cn1 [Example 38, (S)-1-(1-(4-chloro-3-fluorophenyl)-2-hydroxyethyl)-4-(3-(1-methyl-1H-pyrazol-4-yl)-1H-indazol-5-yl)pyridin-2(1H)-one] | 500 to 1000 | < 10
17 | Cn1cc(-c2n[nH]c3ccc(-c4ccn([C@H](CO)c5cc(F)cc(Br)c5)c(=O)c4)cc23)cn1 [Example 39, (S)-1-(1-(3-bromo-5-fluorophenyl)-2-hydroxyethyl)-4-(3-(1-methyl-1H-pyrazol-4-yl)-1H-indazol-5-yl)pyridin-2(1H)-one] | ≤ 500 | < 10
18 | CC(C)Oc1ccc(-c2n[nH]c3ccc(-c4ccn([C@H](CO)c5cc(F)cc(Br)c5)c(=O)c4)cc23)cn1 [Example 40, (S)-1-(1-(3-bromo-5-fluorophenyl)-2-hydroxyethyl)-4-(3-(6-isopropoxypyridin-3-yl)-1H-indazol-5-yl)pyridin-2(1H)-one] | ≤ 500 | < 10
19 | Cn1cc(-c2n[nH]c3ccc(-c4ccn([C@H](CO)c5cc(F)cc(C(F)(F)F)c5)c(=O)c4)cc23)cn1 [Example 41, (S)-1-(1-(3-fluoro-5-(trifluoromethyl)phenyl)-2-hydroxyethyl)-4-(3-(1-methyl-1H-pyrazol-4-yl)-1H-indazol-5-yl)pyridin-2(1H)-one] | ≤ 500 | < 10
20 | Cn1cc(-c2n[nH]c3ccc(-c4ccn([C@H](CO)c5cccc(C(F)(F)F)c5)c(=O)c4)cc23)cn1 [Example 42, (S)-1-(2-hydroxy-1-(3-(trifluoromethyl)phenyl)ethyl)-4-(3-(1-methyl-1H-pyrazol-4-yl)-1H-indazol-5-yl)pyridin-2(1H)-one] | 500 to 1000 | < 10
21 | CC(C)Oc1ccc(-c2n[nH]c3ccc(-c4ccn([C@H](CO)c5cccc(C(F)(F)F)c5)c(=O)c4)cc23)cn1 [Example 43, (S)-1-(2-hydroxy-1-(3-(trifluoromethyl)phenyl)ethyl)-4-(3-(6-isopropoxypyridin-3-yl)-1H-indazol-5-yl)pyridin-2(1H)-one] | 1000 to 5000 | < 10
